US11547697B2, “Heterocyclic compounds and uses thereof” (MILLENNIUM PHARMACEUTICALS, INC., priority 2009, dated 2023)
Like-named read-outs stand apart in the source and are kept apart here.

Columns and labels:
Format in all cases: biochemical
[1] = molecular target: p110α/p85α (Homo sapiens (Human), UniProt P42336); test: PI 3-Kinase (human) HTRF assay, p110α/p85α
[2] = molecular target: p110β/p85α (Homo sapiens (Human), UniProt P42338); test: PI 3-Kinase (human) HTRF assay, p110β/p85α
[3] = molecular target: p110γ (Homo sapiens (Human), UniProt P48736); test: PI 3-Kinase (human) HTRF assay, p110γ
Protocol: An exemplary system is PI 3-Kinase (human) HTRF™ Assay from Upstate. […] Briefly, the assay is a time resolved FRET assay that indirectly measures PIP3 product formed by the activity of a PI3-K. The kinase reaction is performed in a microtitre plate (e.g., a 384 well microtitre plate). The total reaction volume is approximately 20 ul per well. In the first step, each well receives 2 ul of test compound in 20% dimethylsulphoxide resulting in a 2% DMSO final concentration. Next, approximately 14.5 ul of a kinase/PIP2 mixture (diluted in 1× reaction buffer) is added per well for a final concentration of 0.25-0.3 ug/ml kinase and 10 μM PIP2. The plate is sealed and incubated for 15 minutes at room temperature. To start the reaction, 3.5 ul of ATP (diluted in 1× reaction buffer) is added per well for a final concentration of 10 μM ATP. The plate is sealed and incubated for 1 hour at room temperature. The reaction is stopped by adding 5 ul of Stop Solution per well and then 5 ul of Detection Mix is added per well. The plate is sealed, incubated for 1 hour at room temperature, and then read on an appropriate plate reader. Data is analyzed and IC50s are generated using GraphPad Prism 5. […] For PI3K α, β, δ, and γ, the nM concentration of inhibitor to reach IC50 is provided.

[4] = in vitro, read-out: PI3K α IC50
[5] = in vitro, read-out: PI3K β IC50
[6] = in vitro, read-out: PI3K γ IC50

Chain of p110α/p85α (P42336 whole entry): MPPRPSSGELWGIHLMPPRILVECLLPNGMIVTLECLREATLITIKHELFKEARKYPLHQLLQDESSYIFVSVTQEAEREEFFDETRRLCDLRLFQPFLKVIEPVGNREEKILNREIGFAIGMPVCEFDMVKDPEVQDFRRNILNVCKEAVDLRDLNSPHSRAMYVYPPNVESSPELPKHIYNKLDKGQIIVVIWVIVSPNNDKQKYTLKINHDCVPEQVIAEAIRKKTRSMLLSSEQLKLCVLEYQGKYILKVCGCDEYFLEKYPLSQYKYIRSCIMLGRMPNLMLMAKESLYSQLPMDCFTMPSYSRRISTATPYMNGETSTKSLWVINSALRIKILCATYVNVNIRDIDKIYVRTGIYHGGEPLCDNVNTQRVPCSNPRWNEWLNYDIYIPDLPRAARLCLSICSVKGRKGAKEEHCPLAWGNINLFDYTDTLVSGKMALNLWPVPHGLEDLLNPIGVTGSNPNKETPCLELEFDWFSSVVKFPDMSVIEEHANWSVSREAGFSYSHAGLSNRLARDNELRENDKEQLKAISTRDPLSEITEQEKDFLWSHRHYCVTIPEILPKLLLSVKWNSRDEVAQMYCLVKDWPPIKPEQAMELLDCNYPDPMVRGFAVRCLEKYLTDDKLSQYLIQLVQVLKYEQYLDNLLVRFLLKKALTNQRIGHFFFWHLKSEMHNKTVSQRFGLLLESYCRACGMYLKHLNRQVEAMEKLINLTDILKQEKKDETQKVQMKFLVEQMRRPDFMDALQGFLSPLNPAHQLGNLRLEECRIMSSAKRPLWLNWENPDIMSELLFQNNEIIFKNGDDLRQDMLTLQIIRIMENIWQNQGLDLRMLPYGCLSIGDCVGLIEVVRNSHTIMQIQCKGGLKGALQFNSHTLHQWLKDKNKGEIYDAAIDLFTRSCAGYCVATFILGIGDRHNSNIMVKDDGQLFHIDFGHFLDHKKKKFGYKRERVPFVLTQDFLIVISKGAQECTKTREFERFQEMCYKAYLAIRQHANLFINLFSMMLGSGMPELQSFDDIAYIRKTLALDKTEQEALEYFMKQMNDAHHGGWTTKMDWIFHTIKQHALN
Chain of p110α/p85α (P27986 whole entry partner): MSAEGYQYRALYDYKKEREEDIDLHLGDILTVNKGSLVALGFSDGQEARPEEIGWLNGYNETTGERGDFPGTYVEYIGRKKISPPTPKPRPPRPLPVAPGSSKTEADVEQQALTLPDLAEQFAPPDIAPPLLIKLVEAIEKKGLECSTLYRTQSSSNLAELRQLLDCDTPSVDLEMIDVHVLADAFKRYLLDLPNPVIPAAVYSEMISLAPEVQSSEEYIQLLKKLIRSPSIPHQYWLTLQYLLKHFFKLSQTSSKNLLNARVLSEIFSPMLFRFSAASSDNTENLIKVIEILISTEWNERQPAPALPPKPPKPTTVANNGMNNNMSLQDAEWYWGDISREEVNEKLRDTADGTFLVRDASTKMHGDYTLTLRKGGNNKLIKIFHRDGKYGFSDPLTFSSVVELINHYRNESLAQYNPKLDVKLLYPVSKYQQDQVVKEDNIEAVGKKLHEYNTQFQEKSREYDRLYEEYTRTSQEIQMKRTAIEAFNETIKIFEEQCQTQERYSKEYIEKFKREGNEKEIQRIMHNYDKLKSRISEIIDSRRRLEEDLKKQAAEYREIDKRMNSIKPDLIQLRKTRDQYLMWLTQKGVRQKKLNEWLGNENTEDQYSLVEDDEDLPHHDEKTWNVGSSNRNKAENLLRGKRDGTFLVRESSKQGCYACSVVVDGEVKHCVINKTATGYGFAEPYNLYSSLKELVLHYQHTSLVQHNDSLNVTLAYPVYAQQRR
Chain of p110β/p85α (P42338 whole entry): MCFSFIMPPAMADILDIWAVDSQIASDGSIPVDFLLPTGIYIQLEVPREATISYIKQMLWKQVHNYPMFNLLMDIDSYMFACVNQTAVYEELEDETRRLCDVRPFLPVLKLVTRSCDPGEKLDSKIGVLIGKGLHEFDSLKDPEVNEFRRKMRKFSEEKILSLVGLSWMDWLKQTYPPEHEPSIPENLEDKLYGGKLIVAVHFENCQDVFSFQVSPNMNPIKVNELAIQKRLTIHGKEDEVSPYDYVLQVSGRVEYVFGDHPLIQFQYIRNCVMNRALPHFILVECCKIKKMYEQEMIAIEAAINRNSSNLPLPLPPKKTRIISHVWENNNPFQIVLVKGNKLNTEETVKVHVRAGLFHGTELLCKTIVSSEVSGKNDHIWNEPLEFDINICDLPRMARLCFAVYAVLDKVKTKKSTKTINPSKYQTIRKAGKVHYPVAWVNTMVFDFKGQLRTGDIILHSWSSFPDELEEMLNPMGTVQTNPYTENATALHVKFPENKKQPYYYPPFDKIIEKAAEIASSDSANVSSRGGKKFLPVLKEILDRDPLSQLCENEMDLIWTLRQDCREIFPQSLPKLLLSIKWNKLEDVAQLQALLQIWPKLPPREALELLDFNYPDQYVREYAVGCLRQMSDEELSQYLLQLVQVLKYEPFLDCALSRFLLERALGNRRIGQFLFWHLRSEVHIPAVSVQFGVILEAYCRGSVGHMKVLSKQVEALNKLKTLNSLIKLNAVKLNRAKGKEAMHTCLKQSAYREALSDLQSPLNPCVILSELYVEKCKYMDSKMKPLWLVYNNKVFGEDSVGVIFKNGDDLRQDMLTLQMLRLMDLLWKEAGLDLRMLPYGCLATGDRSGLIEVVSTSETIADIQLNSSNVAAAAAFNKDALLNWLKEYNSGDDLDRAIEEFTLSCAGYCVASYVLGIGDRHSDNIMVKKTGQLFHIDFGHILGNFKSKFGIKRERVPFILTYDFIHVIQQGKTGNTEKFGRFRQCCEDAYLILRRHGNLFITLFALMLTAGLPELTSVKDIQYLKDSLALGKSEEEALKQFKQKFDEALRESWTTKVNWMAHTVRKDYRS
Chain of p110β/p85α (P27986 whole entry partner): as the sequence (P27986 whole entry partner) above
Chain of p110γ (P48736 whole entry): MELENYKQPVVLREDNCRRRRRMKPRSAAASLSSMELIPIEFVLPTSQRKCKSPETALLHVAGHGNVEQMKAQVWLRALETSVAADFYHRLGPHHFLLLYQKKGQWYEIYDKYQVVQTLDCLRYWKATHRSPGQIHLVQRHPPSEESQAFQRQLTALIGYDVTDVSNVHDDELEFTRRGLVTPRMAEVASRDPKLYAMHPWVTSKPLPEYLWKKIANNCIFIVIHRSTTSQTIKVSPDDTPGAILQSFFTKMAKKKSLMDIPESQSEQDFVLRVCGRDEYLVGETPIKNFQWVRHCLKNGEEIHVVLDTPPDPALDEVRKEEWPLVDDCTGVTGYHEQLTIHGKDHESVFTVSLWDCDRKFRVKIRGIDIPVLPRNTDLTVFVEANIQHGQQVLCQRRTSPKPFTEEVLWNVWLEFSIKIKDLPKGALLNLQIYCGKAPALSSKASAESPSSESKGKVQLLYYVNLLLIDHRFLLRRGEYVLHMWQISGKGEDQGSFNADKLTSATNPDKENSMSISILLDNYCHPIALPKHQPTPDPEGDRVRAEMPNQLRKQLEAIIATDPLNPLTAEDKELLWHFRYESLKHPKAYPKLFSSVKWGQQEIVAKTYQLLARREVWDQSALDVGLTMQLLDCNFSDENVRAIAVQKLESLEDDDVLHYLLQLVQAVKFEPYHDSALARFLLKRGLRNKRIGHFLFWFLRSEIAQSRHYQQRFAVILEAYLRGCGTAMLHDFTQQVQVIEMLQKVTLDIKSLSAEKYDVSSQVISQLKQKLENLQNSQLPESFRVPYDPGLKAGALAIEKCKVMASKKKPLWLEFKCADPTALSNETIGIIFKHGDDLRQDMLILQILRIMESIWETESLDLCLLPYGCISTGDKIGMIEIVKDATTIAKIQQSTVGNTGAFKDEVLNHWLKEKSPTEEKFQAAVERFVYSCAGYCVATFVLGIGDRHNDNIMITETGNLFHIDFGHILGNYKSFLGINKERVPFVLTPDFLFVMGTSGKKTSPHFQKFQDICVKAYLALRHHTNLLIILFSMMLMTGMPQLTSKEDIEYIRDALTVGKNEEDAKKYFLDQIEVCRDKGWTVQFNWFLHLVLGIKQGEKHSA

For `CCN1CCC(n2cnc3ccc(-c4ccc5oc(N)nc5c4)cc3c2=O)CC1` [compound 73], the IC50 ([1]; read-out: PI3K α IC50) was less than 1000 nM and the IC50 ([2]; read-out: PI3K β IC50) was less than 10000 nM.

Work on `Nc1nc2cc(-c3ccc4ncc(C(=O)N5CCNCC5)n4c3)ccc2o1` [compound 111] yielded an IC50 ([1]; read-out: PI3K α IC50) of less than 100 nM and an IC50 ([2]; read-out: PI3K β IC50) of less than 10000 nM.

`CN1CCCN(C(=O)c2cnc3ccc(-c4ccc5oc(N)nc5c4)cn23)CC1` [compound 140] showed an IC50 ([1]; read-out: PI3K α IC50) of less than 1000 nM and an IC50 ([2]; read-out: PI3K β IC50) of less than 10000 nM.

Work on `CN1CCN(C(=O)c2cnc3ccc(-c4ccc5sc(N)nc5c4)cn23)CC1` [compound 144] yielded an IC50 ([1]; read-out: PI3K α IC50) of less than 1000 nM and an IC50 ([2]; read-out: PI3K β IC50) of less than 10000 nM.

For `CN1CCN(C(=O)c2cnc3ccc(-c4ccc5nc(N)sc5c4)cn23)CC1` [compound 146], the IC50 ([1]; read-out: PI3K α IC50) was less than 10000 nM and the IC50 ([2]; read-out: PI3K β IC50) was less than 10000 nM.

In the case of `CC1CN(C(=O)c2cnc3ccc(-c4ccc5oc(N)nc5c4)cn23)CCN1` (stereo not drawn) [compound 164], the IC50 ([1]; read-out: PI3K α IC50) is reported as less than 1000 nM and the IC50 ([2]; read-out: PI3K β IC50) is reported as less than 1000 nM.

In the case of `Nc1nc2cc(-c3ccc4ncc(C(=O)N5CCC(N)CC5)n4c3)ccc2o1` [compound 204], the IC50 [1, 4] is reported as less than 100 nM and the IC50 [2, 5] is reported as less than 1000 nM.

`Nc1nc2cc(-c3ccc4nnc(-c5cccnc5)n4c3)ccc2o1` [compound 300] showed an IC50 [1, 4] of less than 10000 nM and an IC50 [2, 5] of less than 10000 nM.

`Nc1nc2ccc(-c3ccc4nnc(-c5cccnc5)n4c3)cc2o1` [compound 301] was tested, and the IC50 [1, 4] was less than 10000 nM and the IC50 [2, 5] was less than 10000 nM.

With `C[C@H]1CN(c2cnc3ccc(-c4ccc5sc(N)nc5c4)cc3n2)CCN1` [compound 307] the IC50 [1, 4] was less than 1000 nM and the IC50 [2, 5] was less than 1000 nM.

Compound `C[C@H]1CN(c2cnc3cccc(-c4ccc5nc(N)oc5c4)c3n2)CCN1` [compound 343] has an IC50 [2, 5] of less than 10000 nM.

Work on `Cc1cc2oc(N)nc2cc1-c1ccc2ncc(N3CCN[C@@H](C)C3)nc2c1` [compound 351] yielded an IC50 [1, 4] of less than 10000 nM and an IC50 [2, 5] of less than 1000 nM.

`Nc1nc2cc(-c3ccc4ncc(N5CCNCC5=O)nc4c3)ccc2o1` [compound 389] gave an IC50 [1, 4] of less than 1000 nM and an IC50 [3, 6] of less than 10000 nM.

Work on `CN1CCN(c2cnc3ccc(-c4ccc5oc(N)nc5c4)cc3n2)C(=O)C1` [compound 390] yielded an IC50 [1, 4] of less than 1000 nM and an IC50 [3, 6] of less than 10000 nM.

Work on `Nc1nc2cc(-c3ccc4ncc(N5CCN(CC(F)(F)F)CC5)nc4c3)ccc2o1` [compound 395] yielded an IC50 [1, 4] of less than 100 nM and an IC50 [3, 6] of less than 100 nM.

Work on `O=C(c1cnc2ccc(-c3ccc4oc(Nc5ccccc5)nc4c3)cn12)N1CCOCC1` [compound 407] yielded an IC50 ([2]; read-out: PI3K β In Vitro IC50) of less than 10000 nM.

Work on `Cc1cc(-c2ccc3oc(N)nc3c2)cn2c(C(=O)N3CCOCC3)cnc12` [compound 448] yielded an IC50 ([1]; read-out: PI3K α In Vitro IC50) of less than 1000 nM and an IC50 ([3]; read-out: PI3K γ In Vitro IC50) of less than 10000 nM.

Work on `O=C(c1cnc2ccc(-c3cccc(NS(=O)(=O)c4ccccc4)c3)cn12)N1CCOCC1` [compound 453] yielded an IC50 ([1]; read-out: PI3K α In Vitro IC50) of less than 10000 nM and an IC50 ([3]; read-out: PI3K γ In Vitro IC50) of less than 10000 nM.

`COc1ccc(-c2ccc3ncc(C(=O)N4CCOCC4)n3c2)cc1NS(=O)(=O)c1ccccc1` [compound 455] showed an IC50 ([1]; read-out: PI3K α In Vitro IC50) of less than 10000 nM and an IC50 ([3]; read-out: PI3K γ In Vitro IC50) of less than 10000 nM.

For `O=C(c1cnc2ccc(-c3ccc(Cl)c(NS(=O)(=O)c4ccccc4)c3)cn12)N1CCOCC1` [compound 459], the IC50 ([1]; read-out: PI3K α In Vitro IC50) was less than 1000 nM and the IC50 ([3]; read-out: PI3K γ In Vitro IC50) was less than 1000 nM.

For `Nc1nc2cc(-c3ccc4ncc(C(=O)N5CC[C@H](N6CCOCC6)C5)n4c3)ccc2o1` [compound 465], the IC50 ([1]; read-out: PI3K α In Vitro IC50) was less than 100 nM and the IC50 ([3]; read-out: PI3K γ In Vitro IC50) was less than 1000 nM.

`Nc1nc2cc(-c3ccc4ncc(C(=O)N5CC[C@H](F)C5)n4c3)ccc2o1` [compound 476] was tested, and the IC50 ([1]; read-out: PI3K α In Vitro IC50) was less than 100 nM and the IC50 ([3]; read-out: PI3K γ In Vitro IC50) was less than 100 nM.

`CNc1noc2cc(-c3ccc4ncc(C(=O)N5CCOCC5)n4c3)ccc12` [compound 486] gave an IC50 ([1]; read-out: PI3K α In Vitro IC50) of less than 10000 nM and an IC50 ([3]; read-out: PI3K γ In Vitro IC50) of less than 10000 nM.

Work on `Nc1nc2cc(-c3ccc4ncc(C(=O)N5CCC(N6CC(F)(F)C6)C5)n4c3)ccc2o1` (stereo not drawn) [compound 498] yielded an IC50 ([1]; read-out: PI3K α In Vitro IC50) of less than 1000 nM and an IC50 ([3]; read-out: PI3K γ In Vitro IC50) of less than 10000 nM.

For `Nc1nc2cc(-c3ccc4ncc(C(=O)N5CCC6(C5)OCCO6)n4c3)ccc2o1` [compound 499], the IC50 ([1]; read-out: PI3K α In Vitro IC50) was less than 1000 nM and the IC50 ([3]; read-out: PI3K γ In Vitro IC50) was less than 10000 nM.

`Nc1nc2cc(-c3ccc4ncc(C(=O)N5CCC(F)(F)CC5)n4c3)ccc2o1` [compound 501] was tested, and the IC50 ([1]; read-out: PI3K α In Vitro IC50) was less than 1000 nM and the IC50 ([3]; read-out: PI3K γ In Vitro IC50) was less than 10000 nM.

With `Nc1nc2cc(-c3ccc4ncc(C(=O)N5CCC(F)CC5)n4c3)ccc2o1` [compound 503] the IC50 ([1]; read-out: PI3K α In Vitro IC50) was less than 1000 nM and the IC50 ([3]; read-out: PI3K γ In Vitro IC50) was less than 100 nM.

`CC1(C)CN(C(=O)c2cnc3ccc(-c4ccc5oc(N)nc5c4)cn23)CCO1` [compound 513] gave an IC50 ([1]; read-out: PI3K α In Vitro IC50) of less than 1000 nM and an IC50 ([3]; read-out: PI3K γ In Vitro IC50) of less than 10000 nM.
